Here are results for 1 substance from patent publication US20160061841A1, “NRF2-BASED CANCER TREATMENT AND DETECTION METHODS AND USES” (CanBas Co., Ltd., priority 2014, published 2016).

The test system of experiment [1] is NCI-H2291. The experiment can be described thus: CDDP-enhancing activity of CBP501, cell cycle distribution by flow-cytometry. Conditions: 1 h co-exposure with CDDP. It counts as cell-based, Human. The method, then:
(§1) Cell culture and reagents. Human NSCLC cell lines were cultured in a variety of media, each supplemented with 10% fetal bovine serum (Invitrogen, San Diego, CA) at 37° C. with 5% CO2/air. The media used was RPMI1640 (Sigma-Aldrich, St. Louis, Mo.) for NCI-H1755, NCI-H2030, NCI-H1437, NCI-H2122, NCI-H2172, NCI-H2228, NCI-H1563, NCI-H1944, NCI-H1993, NCI-H1734, NCI-H1568, NCI-H2444, NCI-H2291, NCI-H2347, NCI-H1838, NCI-H1299, HCC827, NCI-H1975, NCI-H1155, NCI-H522 and NCI-H1703; RPMI1640 supplemented with 2mM L-glutamine (Invitrogen) for NCI-H727; RPMI1640 supplemented with 4.5 g/L D-glucose (Sigma-Aldrich), 10 mM HEPES (Sigma-Aldrich) and 1 mM sodium pyruvate (Sigma-Aldrich) for NCI-H358, NCI-H520, NCI-H23, NCI-H647 and NCI-H838; Ham's F12K (Sigma-Aldrich) for A549. CDDP was purchased from Sigma-Aldrich. Sulforaphane (SFN) was purchased from Sigma-Aldrich. All NSCLC cell lines were purchased from ATCC and STR analysis had been performed by ATCC to authenticate the identity of each cell line. All cell lines were used within three months after thawing.
(§2) Cell cycle analysis. Cells were plated in 24-well plates and incubated for 24 hours. The cells were treated with or without CDDP plus or minus CBP501 at the indicated concentration for the indicated times. The cells were harvested and stained with Krishan's solution (0.1% sodium citrate, 50 μg/ml propidium iodide, 20 μg/ml RNase A, 0.5% NP-40). Stained cells were analyzed by FACSCalibur (Becton Dickinson, Franklin Lakes, N.J.) using CELLQuest software (Becton Dickinson).
(§3) Here, the change in the cell cycle distribution, as indicated by flow-cytometry, was used to estimate the sensitivity of NSCLC cell lines to CBP501-enhanced cytotoxicity to CDDP. Such changes were monitored in cells treated with CDDP in the presence or absence of CBP501. The utility of this analysis for assessing the effectiveness of anti-cancer therapy is based on the absence of functioning G1/S checkpoint regulation in the cell cycle of many types of cancer cells (14). Lack of a functional G1/S checkpoint leads to an accumulation of cancer cells in G2/M phase upon their exposure to DNA-damaging anticancer agents (14, 15).
(§4) To assess the CDDP-enhancing activity of CBP501, one can examine either of two dose-response curves in which the X-axis indicates the dose of CDDP and Y-axis indicates either the number of cells in subG1 or in G2/M. The transition and peak in either dose-response curve will shift to the left in the presence of CBP501 for CBP501-sensitive cells, indicating the enhanced ability of CDDP to change the cell cycle distribution. […] Using this criterion based on CBP501's ability to shift the CDDP-induced subG1 or G2/M dose-response curve, twelve NSCLC cell lines were classified as being either, CBP501-sensitive or CBP501-insensitive. Cell lines that shifted the curve two fold or more were classified as CBP501 sensitive cells and those that shifted the curve less than two fold were classified as CBP501 insensitive (Table 1). Classification of CBP501 sensitivity in NSCLC cell lines.

Experiment [2] deals with NCI-H2122. The description is as above. It counts as cell-based, Human. The conditions noted are these: 1 h co-exposure with CDDP, shift of subG1 or G2/M dose-response curve. Here is the method:
as §1, §2, §3, §4

In experiment [3] the test system is NCI-H1568. The description is as above. It counts as cell-based, Human. Conditions: 1 h co-exposure with CDDP. Here is the method:
as §1, §2, §3, §4

For experiment [4], the system named is NCI-H1944. Described as above. Type of experiment: cell-based, Human. The conditions noted are these: 1 h co-exposure with CDDP, shift of subG1 or G2/M dose-response curve. Here is the method:
as §1, §2, §3, §4

Experiment [5] concerns NCI-H2347. The description is as above. It counts as cell-based, Human. Conditions: 1 h co-exposure with CDDP. The method, then: as §1, §2, §3, §4
For experiment [6], the system named is NCI-H2444. The description is as above. Type of experiment: cell-based, Human. Conditions: 1 h co-exposure with CDDP. Here is the method:
as §1, §2, §3, §4

For experiment [7], the system named is NCI-H2030. Described as above. It counts as cell-based, Human. The conditions noted are these: 1 h co-exposure with CDDP, shift of subG1 or G2/M dose-response curve. The method, then:
as §1, §2, §3, §4

The test system of experiment [8] is NCI-H838. Described as above. It counts as cell-based, Human. Conditions: 1 h co-exposure with CDDP; for Folds increase of CDDP effect by CBP501: shift of subG1 or G2/M dose-response curve. Here is the method: as §1, §2, §3, §4
For experiment [9], the system named is NCI-H2228. The experiment is described as above. Type of experiment: cell-based, Human. Conditions: 1 h co-exposure with CDDP. The method, then: as §1, §2, §3, §4
The subject of experiment [10] is NCI-H2172. The experiment is described as above. It counts as cell-based, Human. The conditions noted are these: 1 h co-exposure with CDDP, shift of subG1 or G2/M dose-response curve. The method, then:
as §1, §2, §3, §4

Experiment [11] relates to multiple kinases that phosphorylate CDC25C at Ser216. The conditions noted are these: cited from earlier work.
Experiment [12] concerns 14-3-3 protein. The conditions noted are these: cited from earlier work.
Experiment [13] concerns H1437 Control (Ctrl)-shRNA and Nrf2-shRNA sub-lines. Description: Cell cycle distribution after CDDP with or without CBP501 in H1437 Ctrl-shRNA and Nrf2-shRNA sub-lines. It counts as cell-based, Human. Conditions: one hour treatment with CDDP with or without CBP501. Here is the method:
Cell cycle distribution changes are detected by Flow-cytometry (n=4). The graphs at the left are from the sub-line established by introducing Control (Ctrl)-shRNA into the H1437. The graphs at the right are from the sub-line established by indtroducing Nrf2-shRNA into H1437. Upper graphs indicate the subGl population. Lower graphs indicate the G2-M population. An asterisk indicates statistical significance (TTEST; p<0.001). N.S.=not significant (p>0.01).
as §2
Lentivirus infection. […] Lentivirus infection was performed according to manufacturer's instructions.
The effect of Nrf2 knock-down in the CBP501 insensitive cell line H1437 was investigated.

Setting [14] is: shift of subG1 or G2/M dose-response curve.
[15] abbreviates: NCI-H838 (Table 2, additional cell lines).

“Also recorded” adds a separate entry of the source. Where no end group is shown, it is not given here. [ ]: non-standard residue; d: D form. dPhe(F5) = N[C@H](Cc1c(F)c(F)c(F)c(F)c1F)C(=O)O; dBpa = N[C@H](Cc1ccc(C(=O)c2ccccc2)cc1)C(=O)O; dCha = N[C@H](CC1CCCCC1)C(=O)O

As to “(d-Bpa)(d-Ser)(d-Trp)(d-Ser)(d-Phe-2,3,4,5,6-F)(d-Cha)(d-Arg)(d-Arg)(d-Arg)(d-Gln)(d-Arg)(d-Arg) ([dBpa][dS][dW][dS][dPhe(F5)][dCha][dR][dR][dR][dQ][dR][dR]) [CBP501, anti-cancer drug candidate; calmodulin modulation and G2 checkpoint abrogation]”, the “Definition of CBP501 sensitivity” value in experiment [1] is “Sensitive (Cell lines that shifted the curve two fold or more were classified as CBP501 sensitive cells)”; in experiment [3], “Sensitive (Cell lines that shifted the curve two fold or more were classified as CBP501 sensitive cells)”; in [5], “Sensitive (Cell lines that shifted the curve two fold or more were classified as CBP501 sensitive cells)”; in experiment [6], “Sensitive (Cell lines that shifted the curve two fold or more were classified as CBP501 sensitive cells)”; in experiment [8] (setting [15]) it was “Sensitive (Cell lines that shifted the curve two fold or more were classified as CBP501 sensitive cells)”; in [9], “Insensitive (those that shifted the curve less than two fold were classified as CBP501 insensitive)”. In addition, the “Folds increase of CDDP effect by CBP501” value in experiment [1] (setting [14]) came to 2 fold; in experiment [2], 1 fold; in experiment [3] (setting [14]), 2 fold; in [4], 1.5 fold; in experiment [5] (setting [14]), 4 fold; in experiment [6] (setting [14]), 2 fold. Also, the “Folds increase of CDDP effect by CBP501” value in experiment [7] is on record as 1 fold; in [8] (NCI-H838 (Table 1, initial twelve cell lines)) it was 4 fold; in experiment [8] (setting [15]) it was 2 fold; in [9] (setting [14]), 1.5 fold; in experiment [10], 1.5 fold. The “Inhibition of kinases that phosphorylate CDC25C at Ser216” value in experiment [11] is “inhibits multiple kinases that phosphorylate CDC25C at Ser216”. The “Binding to 14-3-3 protein” value in experiment [12] was “binds directly to 14-3-3 protein”. The “Effect of CBP501 on CDDP-induced changes in cell cycle distribution (subG1, G2-M)” value was “increase the effects of CDDP on changes in the cell cycle distribution of subG1 and G2-M; also recorded: increases CBP501 sensitivity” in [13] (H1437 Nrf2 knock-down); “no difference in CDDP activity with or without CBP501” in experiment [13] (H1437 control shRNA).
